Laboratory results published in patent publication US11814444B2, “Cyclic polypeptides for PCSK9 inhibition” (Ra Pharmaceuticals, Inc., priority 2018, dated 2023).
Numbered stars: 1 amine (or outer) side, 2 acyl side, 3 side chain; on linkers, the order of the positions; unused ones are H or OH. Bridge positions count the residues as written; N and C are the ends. Square brackets hold non-standard residues; d marks the D form. Peptide text beside a SMILES is read from it. Phe(4-COOH) = N[C@@H](Cc1ccc(C(=O)O)cc1)C(=O)O; Trp(7-aza) = N[C@@H](Cc1c[nH]c2ncccc12)C(=O)O; X1 = C[C@@](N[*:1])(C(=O)[*:2])c1ccccc1; Ala(2-furyl) = N[C@@H](Cc1ccco1)C(=O)O; 1Nal = N[C@@H](Cc1cccc2ccccc12)C(=O)O; 2Nal = N[C@@H](Cc1ccc2ccccc2c1)C(=O)O; mXylylene = c1cc(C[*:1])cc(C[*:2])c1; Bta = N[C@@H](Cc1csc2ccccc12)C(=O)O; Val(3-OH) = CC(C)(O)[C@H](N)C(=O)O; 3Thi = N[C@@H](Cc1ccsc1)C(=O)O; Aad = N[C@@H](CCCC(=O)O)C(=O)O; Aic = NC1(C(=O)O)Cc2ccccc2C1; Chg = N[C@H](C(=O)O)C1CCCCC1; Tle = CC(C)(C)[C@H](N)C(=O)O; αMeV = CC(C)[C@](C)(N)C(=O)O; S5 = C=CCCC[C@](C)(N)C(=O)O; Nva = CCC[C@H](N)C(=O)O; Ac4c = NC1(C(=O)O)CCC1; Aib = CC(C)(N)C(=O)O; Mpa = O=C(O)CCS

Target: human PCSK9 / human LDLR EGFa domain interaction (Homo sapiens, UniProt Q8NBP7)
Sequence (Q8NBP7 153-692): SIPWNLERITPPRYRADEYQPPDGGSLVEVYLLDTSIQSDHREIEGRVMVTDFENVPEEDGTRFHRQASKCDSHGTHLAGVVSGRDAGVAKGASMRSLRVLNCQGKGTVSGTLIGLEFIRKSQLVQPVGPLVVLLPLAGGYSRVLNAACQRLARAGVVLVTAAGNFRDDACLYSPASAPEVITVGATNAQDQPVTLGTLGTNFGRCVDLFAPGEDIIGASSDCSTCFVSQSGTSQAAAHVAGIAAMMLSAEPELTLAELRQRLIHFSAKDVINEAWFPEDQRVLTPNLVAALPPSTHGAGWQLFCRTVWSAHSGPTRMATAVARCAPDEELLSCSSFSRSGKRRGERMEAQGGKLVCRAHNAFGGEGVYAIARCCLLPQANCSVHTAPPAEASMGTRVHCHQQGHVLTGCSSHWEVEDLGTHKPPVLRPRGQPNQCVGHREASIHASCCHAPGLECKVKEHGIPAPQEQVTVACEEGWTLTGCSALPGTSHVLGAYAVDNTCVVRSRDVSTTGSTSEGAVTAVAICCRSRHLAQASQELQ
Sequence (Q8NBP7 31-152 partner limits assumed): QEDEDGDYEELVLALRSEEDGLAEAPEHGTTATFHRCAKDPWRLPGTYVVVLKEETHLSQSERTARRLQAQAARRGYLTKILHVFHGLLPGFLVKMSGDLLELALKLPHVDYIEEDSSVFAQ
Test: TR-FRET assay of inhibition of the PCSK9-LDLR protein-protein interaction
Assay type: binding
Conditions: 20 nM avitag-biotinylated human PCSK9, 20 nM his-tagged human LDLR EGFa domain, 2 hours, room temperature
Method: A time-resolved fluorescence resonance energy (TR-FRET) assay was used to measure inhibition of the PCSK9-LDLR protein-protein interaction. Briefly, 20 nM avitag-biotinylated human PCSK9 was incubated with 20 nM his-tagged human LDLR EGFa domain in the presence of 5 nM LANCE Ulight Streptavidin (Perkin Elmer) and 5 nM europium-Anti-6×His (Perkin Elmer) for 2 hours covered at room temperature in buffer containing 50 mM HEPES, 150 mM NaCl, 5 mM CaCl2), 0.01% BSA and 0.01% Surfactant P20. Compounds were tested in dose-response and concentrations giving half-maximal inhibition calculated using a 4-parameter fit equation.

## CCC[C@@H]1NC(=O)[C@H](Cc2ccc(O)cc2)NC(=O)[C@H](C)NC(=O)[C@H](CCC)NC(=O)[C@H](Cc2c[nH]c3ncccc23)NC(=O)[C@H]([C@@H](C)O)NC(=O)[C@@H]2CCCN2C(=O)[C@H](Cc2ccc(O)cc2)NC(=O)[C@H](C(C)(C)C)NC(=O)CCSCc2cccc(c2)CSC[C@@H](C(N)=O)NC(=O)[C@H](C)NC1=O [Compound 172] ([Mpa][Tle]YPT[Trp(7-aza)][Nva]AY[Nva]AC-NH2; linker 1-12 via mXylylene)
  IC50: 1000 to 21000 nM

## CCC[C@@H]1NC(=O)[C@H](Cc2c[nH]c3ncccc23)NC(=O)[C@H]([C@@H](C)O)NC(=O)[C@H](Cc2ccsc2)NC(=O)[C@H](Cc2ccc(O)cc2)NC(=O)[C@H](C(C)(C)C)NC(=O)CCSCc2cccc(c2)CSC[C@@H](C(N)=O)NC(=O)[C@H]([C@@H](C)O)NC(=O)[C@H](CCC)NC(=O)[C@H](Cc2ccc(O)cc2)NC(=O)[C@H](CCC(=O)O)NC1=O [Compound 119] ([Mpa][Tle]Y[3Thi]T[Trp(7-aza)][Nva]EY[Nva]TC-NH2; linker 1-12 via mXylylene)
  IC50: 1000 to 21000 nM

## CC(=O)N[C@H]1CSCc2cccc(c2)CSC[C@H](C(N)=O)NC(=O)[C@H]([C@@H](C)O)NC(=O)[C@](C)(C(C)C)NC(=O)[C@H](Cc2ccc(O)cc2)NC(=O)[C@H](C)NC(=O)C2(CCC2)NC(=O)[C@H](Cc2c[nH]c3ncccc23)NC(=O)[C@H](C(C)(C)O)NC(=O)[C@@H]2CCCN2C(=O)[C@H](Cc2ccc(O)cc2)NC(=O)[C@H](C(C)(C)C)NC1=O [Compound 194] (Ac-C[Tle]YP[Val(3-OH)][Trp(7-aza)][Ac4c]AY[αMeV]T[dC]-NH2; linker 1-12 via mXylylene)
  IC50: 1 to 100 nM

## C=CCCC[C@]1(C)NC(=O)[C@H](Cc2cccc3ccccc23)NC(=O)[C@H]([C@@H](C)O)NC(=O)[C@@H]2CCCN2C(=O)[C@H](Cc2ccc(O)cc2)NC(=O)[C@H](C(C)(C)C)NC(=O)[C@@H](NC(C)=O)CCCC(=O)NCCCC[C@@H](C(N)=O)NC(=O)[C@](C)(CCCC=C)NC(=O)[C@H](CCC)NC(=O)[C@H](Cc2ccc(O)cc2)NC(=O)[C@H](C)NC1=O [Compound 044] (Ac-[Aad][Tle]YPT[1Nal][S5]AY[Nva][S5]K-NH2; lactam 1-12)
  IC50: 100 to 1000 nM

## CCC[C@@H]1NC(=O)[C@H](Cc2c[nH]c3ncccc23)NC(=O)[C@H]([C@@H](C)O)NC(=O)[C@H](Cc2ccco2)NC(=O)[C@H](Cc2ccc(O)cc2)NC(=O)[C@H](C(C)(C)C)NC(=O)CCSCc2cccc(c2)CSC[C@@H](C(N)=O)NC(=O)[C@H]([C@@H](C)O)NC(=O)[C@H](CCC)NC(=O)[C@H](Cc2ccc(O)cc2)NC(=O)[C@H](CCC(=O)O)NC1=O [Compound 117] ([Mpa][Tle]Y[Ala(2-furyl)]T[Trp(7-aza)][Nva]EY[Nva]TC-NH2; linker 1-12 via mXylylene)
  IC50: 1000 to 21000 nM

## CCC[C@@H]1NC(=O)[C@H](Cc2c[nH]c3ccccc23)NC(=O)[C@H]([C@@H](C)O)NC(=O)[C@@H]2CCCN2C(=O)[C@H](Cc2ccc(O)cc2)NC(=O)[C@H](C(C)(C)C)NC(=O)CCSCc2cccc(c2)CSC[C@@H](C(N)=O)NC(=O)[C@H]([C@@H](C)O)NC(=O)[C@](C)(C(C)C)NC(=O)[C@H](Cc2ccc(O)cc2)NC(=O)[C@H](C)NC1=O [Compound 177] ([Mpa][Tle]YPTW[Nva]AY[αMeV]TC-NH2; linker 1-12 via mXylylene)
  IC50: 1000 to 21000 nM

## CCC[C@@H]1NC(=O)[C@H](Cc2c[nH]c3ncccc23)NC(=O)[C@H](CC(N)=O)NC(=O)[C@H](Cc2c[nH]cn2)NC(=O)[C@H](Cc2ccc(O)cc2)NC(=O)[C@H](C(C)(C)C)NC(=O)CCSCc2cccc(c2)CSC[C@@H](C(N)=O)NC(=O)[C@H]([C@@H](C)O)NC(=O)[C@H](CCC)NC(=O)[C@H](Cc2ccc(O)cc2)NC(=O)[C@H](CCC(=O)O)NC1=O [Compound 287] ([Mpa][Tle]YHN[Trp(7-aza)][Nva]EY[Nva]TC-NH2; linker 1-12 via mXylylene)
  IC50: 100 to 1000 nM

## CCC[C@@H]1NC(=O)[C@H](Cc2c[nH]c3ncccc23)NC(=O)[C@H]([C@@H](C)O)NC(=O)[C@@H]2CCCN2C(=O)[C@H](Cc2ccc(O)cc2)NC(=O)[C@H](C(C)(C)C)NC(=O)[C@@H](NC(C)=O)CCCC(=O)NCCCC[C@H](C(N)=O)NC(=O)[C@H]([C@@H](C)O)NC(=O)[C@](C)(C(C)C)NC(=O)[C@H](Cc2ccc(O)cc2)NC(=O)[C@H](C)NC1=O [Compound 072] (Ac-[Aad][Tle]YPT[Trp(7-aza)][Nva]AY[αMeV]T[dK]-NH2; lactam 1-12)
  IC50: 1000 to 21000 nM

## CCC[C@@H]1NC(=O)[C@H](Cc2c[nH]c3ncccc23)NC(=O)[C@H]([C@@H](C)O)NC(=O)[C@@H](Cc2cnc[nH]2)NC(=O)[C@H](Cc2ccc(O)cc2)NC(=O)[C@H](C(C)(C)C)NC(=O)CCSCc2cccc(c2)CSC[C@@H](C(N)=O)NC(=O)[C@H]([C@@H](C)O)NC(=O)[C@H](CCC)NC(=O)[C@H](Cc2ccc(O)cc2)NC(=O)[C@H](CCC(=O)O)NC1=O [Compound 204] ([Mpa][Tle]Y[dH]T[Trp(7-aza)][Nva]EY[Nva]TC-NH2; linker 1-12 via mXylylene)
  IC50: 1000 to 21000 nM

## CC(=O)N[C@H]1CSCc2cccc(c2)CSC[C@H](C(N)=O)NC(=O)[C@H]([C@@H](C)O)NC(=O)[C@](C)(C(C)C)NC(=O)[C@H](Cc2ccc(O)cc2)NC(=O)[C@H](C)NC(=O)C2(Cc3ccccc3C2)NC(=O)[C@H](Cc2c[nH]c3ncccc23)NC(=O)[C@H]([C@@H](C)O)NC(=O)[C@@H]2CCCN2C(=O)[C@H](Cc2ccc(O)cc2)NC(=O)[C@H](C(C)(C)C)NC1=O [Compound 196] (Ac-C[Tle]YPT[Trp(7-aza)][Aic]AY[αMeV]T[dC]-NH2; linker 1-12 via mXylylene)
  IC50: 100 to 1000 nM

## CCC[C@@H]1NC(=O)[C@H](Cc2cccc3ccccc23)NC(=O)[C@H]([C@@H](C)O)NC(=O)[C@H](Cc2c[nH]cn2)NC(=O)[C@H](Cc2ccc(O)cc2)NC(=O)[C@H](C(C)(C)C)NC(=O)CCSCc2cccc(c2)CSC[C@@H](C(N)=O)NC(=O)[C@H]([C@@H](C)O)NC(=O)[C@H](CCC)NC(=O)[C@H](Cc2ccc(O)cc2)NC(=O)[C@H](CCC(=O)O)NC1=O [Compound 277] ([Mpa][Tle]YHT[1Nal][Nva]EY[Nva]TC-NH2; linker 1-12 via mXylylene)
  IC50: 100 to 1000 nM

## CCC[C@@H]1NC(=O)[C@H](Cc2csc3ccccc23)NC(=O)[C@H]([C@@H](C)O)NC(=O)[C@H](Cc2c[nH]cn2)NC(=O)[C@H](Cc2ccc(O)cc2)NC(=O)[C@H](C(C)(C)C)NC(=O)CCSCc2cccc(c2)CSC[C@@H](C(N)=O)NC(=O)[C@H]([C@@H](C)O)NC(=O)[C@H](CCC)NC(=O)[C@H](Cc2ccc(O)cc2)NC(=O)[C@H](CCC(=O)O)NC1=O [Compound 275] ([Mpa][Tle]YHT[Bta][Nva]EY[Nva]TC-NH2; linker 1-12 via mXylylene)
  IC50: 100 to 1000 nM

## CCC[C@@H]1NC(=O)[C@H](Cc2ccc3ccccc3c2)NC(=O)[C@H]([C@@H](C)O)NC(=O)[C@H](Cc2c[nH]cn2)NC(=O)[C@H](Cc2ccc(O)cc2)NC(=O)[C@H](C(C)(C)C)NC(=O)CCSCc2cccc(c2)CSC[C@@H](C(N)=O)NC(=O)[C@H]([C@@H](C)O)NC(=O)[C@H](CCC)NC(=O)[C@H](Cc2ccc(O)cc2)NC(=O)[C@H](CCC(=O)O)NC1=O [Compound 276] ([Mpa][Tle]YHT[2Nal][Nva]EY[Nva]TC-NH2; linker 1-12 via mXylylene)
  IC50: 1000 to 21000 nM

## CCC[C@@H]1NC(=O)[C@H](Cc2ccc(O)cc2)NC(=O)[C@H](C)NC(=O)C(C)(C)NC(=O)[C@H](Cc2c[nH]c3ncccc23)NC(=O)[C@H]([C@@H](C)O)NC(=O)[C@@H]2CCCN2C(=O)[C@H](Cc2ccc(O)cc2)NC(=O)[C@H](C(C)(C)C)NC(=O)[C@@H](NC(C)=O)CCCC(=O)NCCCC[C@@H](C(N)=O)NC(=O)C(C)(C)NC1=O [Compound 049] (Ac-[Aad][Tle]YPT[Trp(7-aza)][Aib]AY[Nva][Aib]K-NH2; lactam 1-12)
  IC50: 100 to 1000 nM

## CCC[C@@H]1NC(=O)[C@H](Cc2c[nH]c3ncccc23)NC(=O)[C@H]([C@@H](C)O)NC(=O)[C@@H]2CCCN2C(=O)[C@H](Cc2ccc(O)cc2)NC(=O)[C@H](C(C)(C)C)NC(=O)CCSCc2cccc(c2)CSC[C@@H](C(N)=O)NC(=O)[C@H](CCC(=O)O)NC(=O)[C@H](C2CCCCC2)NC(=O)[C@H](Cc2ccc(O)cc2)NC(=O)[C@H](C)NC1=O [Compound 171] ([Mpa][Tle]YPT[Trp(7-aza)][Nva]AY[Chg]EC-NH2; linker 1-12 via mXylylene)
  IC50: 1000 to 21000 nM

## CCC[C@@H]1NC(=O)[C@H]([C@@H](C)O)NC(=O)[C@@H]2CCCN2C(=O)[C@H](Cc2ccc(O)cc2)NC(=O)[C@H](C(C)(C)C)NC(=O)[C@@H](NC(C)=O)CCCCNC(=O)CCC[C@@H](C(N)=O)NC(=O)[C@H]([C@@H](C)O)NC(=O)[C@](C)(C(C)C)NC(=O)[C@H](Cc2ccc(O)cc2)NC(=O)[C@H](C)NC1=O [Compound 057] (Ac-K[Tle]YPT[Nva]AY[αMeV]T[Aad]-NH2; lactam 1-11)
  IC50: 1000 to 21000 nM

## CCC[C@@H]1NC(=O)[C@H](Cc2c[nH]c3ncccc23)NC(=O)[C@H]([C@@H](C)O)NC(=O)[C@H](Cc2c[nH]cn2)NC(=O)[C@H](Cc2ccc(O)cc2)NC(=O)[C@H](C(C)(C)C)NC(=O)CCSCc2cccc(c2)CSC[C@@H](C(N)=O)NC(=O)[C@H]([C@@H](C)O)NC(=O)[C@H](CCC)NC(=O)[C@H](Cc2ccc(O)cc2)NC(=O)[C@H](Cc2ccc(C(=O)O)cc2)NC1=O [Compound 278] ([Mpa][Tle]YHT[Trp(7-aza)][Nva][Phe(4-COOH)]Y[Nva]TC-NH2; linker 1-12 via mXylylene)
  IC50: 21000 to 50000 nM

## C[C@@H](O)[C@@H]1NC(=O)[C@H](Cc2c[nH]cn2)NC(=O)[C@H](Cc2ccc(O)cc2)NC(=O)[C@H](C(C)(C)C)NC(=O)CCSCc2cccc(c2)CSC[C@@H](C(N)=O)NC(=O)[C@H]([C@@H](C)O)NC(=O)[C@](C)(c2ccccc2)NC(=O)[C@H](Cc2ccc(O)cc2)NC(=O)[C@H](CCC(=O)O)NC(=O)C(C)(C)NC(=O)[C@H](Cc2c[nH]c3ncccc23)NC1=O [Compound 293] ([Mpa][Tle]YHT[Trp(7-aza)][Aib]EY[X1]TC-NH2; linker 1-12 via mXylylene)
  IC50: 1 to 100 nM
